Data reported in patent publication US11319298B2 (Merck Sharp & Dohme Corp., priority 2016, dated 2022).
pEC50: −log10 of the molar value.

The compounds below were run against T1, human M4 muscarinic acetylcholine receptor (Homo sapiens, UniProt P08173) (assay: human FLIPR-based M4 PAM assay, CHO-K1 cells stably transfected with human M4 receptor and chimeric G-protein Gαqi5). Conditions: inflection point (IP) of dose response curve; acetylcholine added at 20% of maximum response; CHO-K1 human M4/Gαqi5, FLIPR Tetra.
T1 construct: expressed in transfected cells; host or cells: CHO-K1
T1 sequence (P08173 1-479): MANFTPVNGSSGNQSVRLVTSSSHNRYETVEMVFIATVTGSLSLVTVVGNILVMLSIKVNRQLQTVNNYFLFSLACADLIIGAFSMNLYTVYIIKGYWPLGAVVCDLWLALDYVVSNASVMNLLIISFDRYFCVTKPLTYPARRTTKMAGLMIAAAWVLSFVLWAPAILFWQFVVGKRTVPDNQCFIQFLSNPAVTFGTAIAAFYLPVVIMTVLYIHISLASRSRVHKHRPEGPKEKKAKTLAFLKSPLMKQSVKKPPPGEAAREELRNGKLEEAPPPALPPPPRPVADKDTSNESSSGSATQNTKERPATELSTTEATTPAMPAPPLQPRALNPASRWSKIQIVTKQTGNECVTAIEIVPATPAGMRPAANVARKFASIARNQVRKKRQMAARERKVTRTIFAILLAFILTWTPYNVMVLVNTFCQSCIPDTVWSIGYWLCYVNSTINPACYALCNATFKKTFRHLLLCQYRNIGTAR
Type: cell-based
Procedure, shortened: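 The FLIPR read recorded 4 min after compound was added across a concentration range, then 3.5 min after acetylcholine giving 20% of its maximal response, with an occasional extra EC70 addition. Cells were dye-loaded for about 1 h at 37 °C. Potency is the curve inflection point from a four-parameter logistic fit.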

Row | pEC50 | SMILES
1 | 6.75 | COc1ccc(OC2CCN(c3nnc(C(=O)NCc4ccnnc4)cc3C)CC2)cn1 [Example 139, 6-{4-[(6-methoxypyridin-3-yl)oxy]piperidin-1-yl}-5-methyl-N-(pyridazin-4-ylmethyl)pyridazine-3-carboxamide]
2 | 6.33 | COc1ccc(OC2CCN(c3nnc(C(=O)NC4CCc5cccnc54)cc3C)CC2)cn1 (stereo not drawn) [Example 170, N-(6,7-dihdyro-5H-cyclopenta[b]pyridin-7-yl)-6-{4-[(6-methoxypyridin-3-yl)oxy]piperidin-1-yl}-5-methylpyridazine-3-carboxamide]
3 | 6.10 | COc1ccc(OC2CCN(c3nnc(C(=O)N[C@@H]4CCc5ccccc54)cc3C)CC2)cn1 [Example 179, N-[(1R)-2,3-dihydro-1H-inden-1-yl]-6-{4-[(6-methoxypyridin-3-yl)oxy]piperidin-1-yl}-5-methylpyridazine-3-carboxamide]
4 | 5.53 | COc1ccc(OC2CCN(c3nc(C)c(C(N)=O)cc3C)CC2)cn1 [Example 191, 6-{4-[(6-methoxypyridin-3-yl)oxy]piperidin-1-yl}-2,5-dimethypyridine-3-carboxamide]
5 | 5.95 | Cc1cncc(-c2ncnc(N3CCC(Oc4cccc(C#N)c4)CC3)c2C)c1 [Example 247, 3-((1-(5-methyl-6-(5-methylpyridin-3-yl)pyrimidin-4-yl)piperidin-4-yl)oxy)benzonitrile]
6 | 6.49 | COc1ccc(OC2CCN(c3nnc(C(=O)NC4CCc5ncccc5C4)cc3C)CC2)cn1 (stereo not drawn) [Example 163, 6-{4-[(6-methoxypyridin-3-yl)oxy]piperidin-1-yl}-5-methyl-N-(5,6,7,8-tetrahydroquinolin-6-yl)pyridazine-3-carboxamide]
7 | 7.00 | Cc1c(Cl)nc(CO)nc1N1CCC(Oc2ccc3nn(C)cc3c2)CC1 [Example 63]
8 | 6.59 | Cc1ncc(C)c(N2CCC(Oc3ccc4cn[nH]c4c3)CC2)n1 [Example 80, 6-((1-(2,5-dimethylpyrimidin-4-yl)piperidin-4-yl)oxy)-1H-indazole]
9 | 6.92 | COc1ccc(OC2CCN(c3nnc(-c4nc(C)no4)cc3C)CC2)cn1 [Example 28, 5-(6-(4-((6-methoxypyridin-3-yl)oxy)piperidin-1-yl)-5-methylpyridazin-3-yl)-3-methyl-1,2,4-oxadiazole]
10 | 6.61 | COc1ccc(OC2CCN(c3nc(O)nc(Cl)c3C)CC2)cn1 [Example 235, 4-chloro-6-(4-((6-methoxypyridin-3-yl)oxy)piperidin-1-yl)-5-methylpyrimidin-2-ol]
11 | 6.60 | COc1ccc(OC2CCN(c3nnc(-c4nnc(C)o4)cc3C)CC2)cn1 [Example 263, 2-(6-(4-((6-Methoxypyridin-3-yl)oxy)piperidin-1-yl)-5-methylpyridazin-3-yl)-5-methyl-1,3,4-oxadiazole]
12 | 5.94 | Cc1cc(C(=O)N2CCc3snc(-c4cccnc4)c3C2)nnc1N1CCC(Oc2cccc(C#N)c2)CC1 [Example 204, 3-[(1-{4-methyl-6-[(3-pyridin-3-yl-6,7-dihydroisothiazolo[4,5-c]pyridin-5(4H)-yl)carbonyl]pyridazin-3-yl}piperidin-4-yl)oxy]benzonitrile]
13 | 5.74 | COc1ccc(OC2CCN(c3ncnc(N4CCCC4)c3C)CC2)cn1 [Example 237, 4-(4-((6-methoxypyridin-3-yl)oxy)piperidin-1-yl)-5-methyl-6-(pyrrolidin-1-yl)pyrimidine]
14 | 7.07 | Cc1cc(C(=O)NC2C3CC2C3)nnc1N1CCC(Oc2cccc(C#N)c2)CC1 (stereo not drawn) [Example 117, N-bicyclo[1.1.1]pent-2-yl-6-[4-(3-cyanophenoxy)piperidin-1-yl]-5-methylpyridazine-3-carboxamide]
15 | 6.95 | Cc1c(Cl)nc(CO)nc1N1CCC(Oc2ccc3c(c2)NCCO3)CC1 [Example 27, (4-chloro-6-(4-((3,4-dihydro-2H-benzo[b][1,4]oxazin-6-yl)oxy)piperidin-1-yl)-5-methylpyrimidin-2-yl)methanol]
16 | 7.43 | Cc1c(Cl)nc(CO)nc1N1CCC(Oc2ccc3c(c2)OCCN3)CC1 [Example 96, (4-Chloro-6-(4-((3,4-dihydro-2H-benzo[b][1,4]oxazin-7-yl)oxy)piperidin-1-yl)-5-methylpyrimidin-2-yl)methanol]
17 | 7.00 | Cc1cc(C(=O)NCc2ccncc2)nnc1N1CCC(Oc2cccc(C#N)c2)CC1 [Example 204A, 6-(4-(3-cyanophenoxy)piperidin-1-yl)-5-methyl-N-(pyridin-4-ylmethyl)pyridazine-3-carboxamide]
18 | 6.65 | COc1ccc(OC2CCN(c3nc(C(=O)NCc4ccncc4)nc(Cl)c3C)CC2)cn1 [Example 207, 4-chloro-6-(4-((6-methoxypyridin-3-yl)oxy)piperidin-1-yl)-5-methyl-N-(pyridin-4-ylmethyl)pyrimidine-2-carboxamide]
19 | 5.60 | Cc1c(Cl)nc(CO)nc1N1CCC(Oc2ccc3ccn(C)c(=O)c3c2)CC1 [Example 9, 7-((1-(6-chloro-2-(hydroxymethyl)-5-methylpyrimidin-4-yl)piperidin-4-yl)oxy)-2-methylisoquinolin-1(2H)-one]
20 | 5.79 | COc1ccc(OC2CCN(c3ncnc(N)c3C)CC2)cn1 [Example 89, 6-(4-((6-methoxypyridin-3-yl)oxy)piperidin-1-yl)-5-methylpyrimidin-4-amine]
21 | 7.10 | COc1ccc(OC2CCN(c3nnc(C(=O)NCc4ccncc4)cc3C)CC2)cn1 [Example 116, 6-{4-[(6-methoxypyridin-3-yl)oxy]piperidin-1-yl}-5-methyl-N-(pyridin-4-ylmethyl)pyridazine-3-carboxamide]
22 | 6.40 | COc1ccc(OC2CCN(c3nnc(-c4noc(C)n4)cc3C)CC2)cn1 [Example 264, 3-(6-(4-((6-Methoxypyridin-3-yl)oxy)piperidin-1-yl)-5-methylpyridazin-3-yl)-5-methyl-1,2,4-oxadiazole]
23 | 6.58 | COc1ccc(OC2CCN(c3nnc(C(=O)NCc4ccncc4Cl)cc3C)CC2)cn1 [Example 154, N-[(3-chloropyridin-4-yl)methyl]-6-{4-[(6-methoxypyridin-3-yl)oxy]piperidin-1-yl}-5-methylpyridazine-3-carboxamide]
24 | 7.47 | COc1ccc(OC2CCN(c3nnc(C(=O)NCc4ccncc4)cc3C)CC2)cn1 [Example 109, 6-{4-[(6-methoxypyridin-3-yl)oxy]piperidin-1-yl}-5-methyl-N-(pyridin-4-ylmethyl)pyridazine-3-carboxamide]
25 | 6.33 | Cc1cc(C(=O)NC2CCCc3ccccc32)nnc1N1CCC(Oc2cccc(C#N)c2)CC1 (stereo not drawn) [Example 202, 6-[4-(3-cyanophenoxy)piperidin-1-yl]-5-methyl-N-(1,2,3,4-tetrahydronaphthalne-1-yl)pyridazine-3-carboxamide]
26 | 7.13 | Cc1cc(C(=O)NCc2ccncc2)nnc1N1CCC(Oc2cnn(C)c2)CC1 [Example 22, 5-methyl-6-(4-((1-methyl-1H-pyrazol-4-yl)oxy)piperidin-1-yl)-N-(pyridin-4-ylmethyl)pyridazine-3-carboxamide]
27 | 6.51 | COc1ccc(OC2CCN(c3nnc(C(=O)NCCn4ccnc4)cc3C)CC2)cn1 [Example 162, N-[2-(1H-imidazol-1-yl)ethyl]-6-{4-[(6-methoxypyridin-3-yl)oxy]piperidin-1-yl}-5-methylpyridazine-3-carboxamide]
